Consider one sequence from patent US10034915B2, “Small heat shock proteins and active fragments thereof as a therapy for inflammation and ischemia” (The Board of Trustees of the Leland Stanford Junior …, priority 2011, dated 2018).

“Also recorded” adds a separate entry of the source.

For assay [1], the system named is EAE mice. Kind of assay: EAE in 129Sv WT mice immunized with MOG35-55/CFA, clinical scoring. Conditions: peptide every other day from peak of disease (10 μg, or 1 μg equimolar to 10 μg protein). The class given is in vivo, mouse. Here is the method:
To investigate if the therapeutic efficacy of HSPB5 is a common feature of the whole family of small heat shock proteins, we expressed recombinant HSPB1, HSPB4, and HSPB5. We then treated EAE mice every other day starting at the peak of disease, when clinical paralysis is apparent, with an intraperitoneal (IP) administration of 10 μg of either HSPB1, HSPB4, HSPB5, or PBS as the vehicle control. […] Treating mice in vivo with HSPB1, HSPB4, or HSPB5 led to a reduction in the production of pro-inflammatory cytokines by MOG stimulated splenocytes taken from MOG immunized mice (FIG. 1c). Improvement of the clinical score was dependent on continued dosing of the sHSP. After dosing was stopped, symptoms returned, and paralysis worsened after 96 hours.
Therapeutic Peptides from HSPB5 in EAE. […] We made a series of overlapping, 15-mer peptide fragments of HSPB5 and treated mice at the peak of disease with 10 μg of each peptide every other day, using HSPB5 as a positive control and PBS as a negative control.
EAE induction and scoring. Mice were immunized subcutaneously with 100 μL of myelin oligodendrocyte glycoprotein (MOG) peptide 35-55 (2 mg/mL) and Complete Freund's adjuvant (CFA) (4 mg/mL) on Day 0. […] Mice were randomized at the peak of disease into the treatment groups where they received 10 ug/200 μL of sHSP, 1 μg/200 uL of sHSP peptide, or 200 μL of PBS (vehicle) every other day. Mice were scored every day on a clinical scoring system: 0, healthy mouse; 1, limp tail; 2, weak hindlimbs; 3, complete hindlimb paralysis; 4, weak forelimbs and paralyzed hindlimbs; 5, dead.

For another assay, the system named is HSPB5−/− EAE mice. Description: EAE in 129Sv HSPB5−/− mice immunized with MOG35-55/CFA. The class given is in vivo, mouse. The procedure:
Efficacy of HSPB5 73-92 in EAE in HSPB5 deficient mice. We tested whether HSPB5 73-92 alone was sufficient to rescue EAE in alpha B crystallin deficient (HSPB5−/−) mice.
EAE induction and scoring. Mice were immunized subcutaneously with 100 μL of myelin oligodendrocyte glycoprotein (MOG) peptide 35-55 (2 mg/mL) and Complete Freund's adjuvant (CFA) (4 mg/mL) on Day 0. […] […] Mice were scored every day on a clinical scoring system: 0, healthy mouse; 1, limp tail; 2, weak hindlimbs; 3, complete hindlimb paralysis; 4, weak forelimbs and paralyzed hindlimbs; 5, dead.

Assay [2] concerns EAE mice. Kind of assay: EAE in 129Sv WT mice immunized with MOG35-55/CFA, clinical scoring. The assay is classed as in vivo, mouse. Conditions: prevention paradigm.
Assay [3] relates to pro-inflammatory cytokines of MOG stimulated splenocytes. Description: Peripheral immune cell activation: cytokine production by MOG stimulated splenocytes of treated MOG immunized mice (ELISA). More on the design: species or system mouse. Conditions: mice treated in vivo; splenocytes from MOG immunized mice. The procedure:
Peripheral immune cell activation and cytokine analysis. Spleens and lymph nodes were isolated from mice 9 days after immunization with MOG35-55 and CFA. Spleens were mechanically disrupted to isolate single cell splencytes suspension. Cells were cultured in flat bottomed, 96-well plates in media (RPMI 1640 supplemented with […] L-glutamine, 1 mM sodium pyruvate, 0.1 mM non-essential amino acids, 100 U/mL penicillin, 0.1 mg/mL streptomycin, 0.5 uM 2-mercaptoethanol, and 10% fetal calf serum). Cells were stimulated with MOG35-55 (5 ug/mL, 10 ug/mL, and 20 ug/mL). For all activation assays, splenocytes were pooled from three mice per group and triplicate wells were plated. Supernatants of cells were collected at the time of peak production for each cytokine (48 hrs: IL-2, IL-12p40, IL-6; 72 hrs: TNFα and IFNγ; 96 hrs: IL-17; 120 hrs: IL-10). Cytokines were measured in the supernatants using anti-mouse OPTEIA ELISA kits (BD Pharmingen for IFNγ, IL-10, IL-2, IL-6, and IL-12p40; R&D Systems for IL-17 and TNFα).
In general terms: In an ELISA, binding on a coated surface is turned into a signal by an enzyme label.

The test system of assay [4] is partially denatured proteins. As to conditions: in vitro, literature; cited from earlier work.

As for DRFSVNLDVKHFSPEELKVK [HSPB5 73-92], the “therapeutic efficacy of peptide in EAE (clinical scores)” value in the assay with EAE mice [1] is listed as “comparably therapeutic; also recorded: as therapeutic as HSPB5 71-85”. In addition, the disease scores result in the assay on HSPB5−/− EAE mice (10 ug peptide every other day from peak of disease) is on record as “lower disease scores; also recorded: sufficient to ameliorate disease”. In the assay with HSPB5−/− EAE mice (treatment from Day 0), the “incidence of disease, Day 11” value is recorded as 0%; the “incidence of disease, Day 12” value worked out at 0%; the “incidence of disease, Day 13” value amounted to 11%; the “incidence of disease, Day 14” value is given as 33%. Moreover, in the assay on HSPB5−/− EAE mice (treatment from Day 0), the “incidence of disease, Day 15” value came out at 33%; the “incidence of disease, Day 16” value was 33%; the “incidence of disease, Day 17” value is 66%; the “incidence of disease, Day 18” value was determined as 66%. For the same sequence, in the assay on HSPB5−/− EAE mice (treatment from Day 0, vs PBS), the EAE clinical scores entry is given as “ameliorated EAE” and the onset of disease result is recorded as “delayed onset of disease”. Moreover, the EAE clinical scores entry with HSPB5−/− EAE mice (treatment from Day 0, vs PBS, listed as B5 73-92) was “lower EAE clinical scores”. In addition, the disease severity result in the assay with EAE mice [2] (10 μg peptide every day from Day 0) was “ameliorated EAE”. The disease severity result in the assay on EAE mice [2] (10 μg peptide every day from Day 0, listed as B5 73-92) is recorded as “lower disease severity”. Also, the onset of disease entry with EAE mice [2] (treatment from Day 0) was “delayed onset of disease”. Also, the “production of pro-inflammatory cytokines by MOG stimulated splenocytes” value in assay [3] was “decrease peripheral immune activation”. Moreover, the molecular chaperone activity entry in assay [4] is listed as “important for molecular chaperone activity”.
